Data reported in ChEMBL document CHEMBL1955858, “Synthesis and biological evaluation of novel amprenavir-based P1-substituted bi-aryl derivatives as ultra-potent HIV-1 protease inhibitors” (Bioorg Med Chem Lett, 2012).

Legend:
Protease = Protease (Human immunodeficiency virus 1, UniProt Q9YQ12); experiment: Inhibition of HIV1 protease using Arg-Glu(EDANS)-Ser-Gln-Asn-Tyr-Pro-Ile-Val-Gln-Lys(DABCYL)- Arg as substrate for 20 to 30 mins by FRET analysis
[1] = tested on: Human immunodeficiency virus 1; experiment: Antiviral activity against HIV1 3B infected in human C8166 cells assessed as inhibition of syncytia formation after 3 days; assay type: functional, organism-based; details: Human immunodeficiency virus 1, 3B, C8166, 72 h
[2] = Cytostatic activity against human C8166 cells by MTT assay; assay type: cell-based
[3] = Selectivity index, ratio of CC50 for human C8166 cells to EC50 for HIV1 3B; assay type: toxicity, cell-based; details: read-out: Ratio CC50/EC50
[4] = tested on: Human immunodeficiency virus 1; experiment: Ratio of amprenavir EC50 to compound EC50 for HIV1 3B; assay type: functional
[5] = biological target: Protease (Human immunodeficiency virus 1) (UniProt Q9YQ12); experiment: Ratio of amprenavir Ki to compound Ki for HIV1 protease
Sequence of Protease (Human immunodeficiency virus 1) (Q9YQ12 as listed by the source): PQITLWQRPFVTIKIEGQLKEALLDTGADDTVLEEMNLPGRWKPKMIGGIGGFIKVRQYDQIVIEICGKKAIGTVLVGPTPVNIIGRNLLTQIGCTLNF

Sequence of Protease (Q9YQ12 whole entry): as the sequence (Q9YQ12 as listed by the source) above

Ki (Protease)	EC50 [1]	Ratio Ki [5]	SMILES	CC50 [2]	selectivity ratio [3]	Ratio EC50 [4]
7.4 nM	6.89 nM		COc1ccc(S(=O)(=O)N(CC(C)C)C[C@@H](O)[C@H](Cc2ccc(-c3ccc(SC)cc3)cc2)NC(=O)O[C@H]2CCOC2)cc1	240000 nM	34800	
1.6 nM	3.46 nM		COC(=O)c1cccc(-c2ccc(C[C@H](NC(=O)O[C@H]3CCOC3)[C@H](O)CN(CC(C)C)S(=O)(=O)c3ccc(OC)cc3)cc2)c1	190000 nM	54900	
6.4 nM	4.29 nM		COc1ccc(S(=O)(=O)N(CC(C)C)C[C@@H](O)[C@H](Cc2ccc(-c3ccc(Cl)cc3)cc2)NC(=O)O[C@H]2CCOC2)cc1	230000 nM	53600	
4.3 nM	4.3 nM		COc1ccc(S(=O)(=O)N(CC(C)C)C[C@@H](O)[C@H](Cc2ccc(-c3cccc(O)c3)cc2)NC(=O)O[C@H]2CCOC2)cc1	41000 nM	9540	
1.9 nM	5.53 nM		COc1ccc(S(=O)(=O)N(CC(C)C)C[C@@H](O)[C@H](Cc2ccc(-c3ccc(C(=O)O)cc3)cc2)NC(=O)O[C@H]2CCOC2)cc1	140000 nM	25300	
5.8 nM	3.98 nM		COc1ccc(S(=O)(=O)N(CC(C)C)C[C@@H](O)[C@H](Cc2ccc(-c3ccc(F)cc3)cc2)NC(=O)O[C@H]2CCOC2)cc1	140000 nM	35200	
5.8 nM	2.32 nM		COc1ccc(S(=O)(=O)N(CC(C)C)C[C@@H](O)[C@H](Cc2ccc(-c3ccc(C(C)=O)cc3)cc2)NC(=O)O[C@H]2CCOC2)cc1	210000 nM	90500	

Continued, compound first:

SMILES	Ki (Protease)	EC50 [1]	Ratio Ki [5]	CC50 [2]	selectivity ratio [3]	Ratio EC50 [4]
CC(C)CN(C[C@@H](O)[C@H](Cc1ccc(-c2ccccc2)cc1)NC(=O)O[C@H]1CCOC1)S(=O)(=O)c1ccc(N)cc1	1.98 nM	2.25 nM		32000 nM	14200	
COc1ccc(S(=O)(=O)N(CC(C)C)C[C@@H](O)[C@H](Cc2ccc(-c3ccncc3)cc2)NC(=O)O[C@H]2CCOC2)cc1	3.8 nM	2.68 nM		260000 nM	97000	
CC(C)CN(C[C@@H](O)[C@H](Cc1ccc(-c2ccncc2)cc1)NC(=O)O[C@H]1CCOC1)S(=O)(=O)c1ccc(N)cc1	0.086 nM	0.1 nM		260000 nM	2.6e+06	30
CC(C)CN(C[C@@H](O)[C@H](Cc1ccccc1)NC(=O)O[C@H]1CCOC1)S(=O)(=O)c1ccc(N)cc1 [AMPRENAVIR]	0.84 nM	2.93 nM		230000 nM	78500	
COc1ccc(S(=O)(=O)N(CC(C)C)C[C@@H](O)[C@H](Cc2ccc(-c3cccnc3)cc2)NC(=O)O[C@H]2CCOC2)cc1	1.6 nM	3.08 nM		210000 nM	68200	
COc1ccc(S(=O)(=O)N(CC(C)C)C[C@@H](O)[C@H](Cc2ccc(-c3cccc(C#N)c3)cc2)NC(=O)O[C@H]2CCOC2)cc1	8.1 nM	9.2 nM		320000 nM	34800	
CC(C)CN(C[C@@H](O)[C@H](Cc1ccc(-c2cccnc2)cc1)NC(=O)O[C@H]1CCOC1)S(=O)(=O)c1ccc(N)cc1	0.33 nM	0.1 nM	2	200000 nM	2e+06	30
COc1ccc(S(=O)(=O)N(CC(C)C)C[C@@H](O)[C@H](Cc2ccc(-c3ccsc3)cc2)NC(=O)O[C@H]2CCOC2)cc1	3.5 nM	4.48 nM		160000 nM	35700	
COc1ccc(S(=O)(=O)N(CC(C)C)C[C@@H](O)[C@H](Cc2ccc(-c3ccc(OC)c(C)c3)cc2)NC(=O)O[C@H]2CCOC2)cc1	1.8 nM	3.63 nM		170000 nM	46800	
COc1ccc(S(=O)(=O)N(CC(C)C)C[C@@H](O)[C@H](Cc2ccc(-c3ccc(OC(F)(F)F)cc3)cc2)NC(=O)O[C@H]2CCOC2)cc1	5.2 nM	6.04 nM		170000 nM	28100	
